Experimental data as given in US4959361A, “Triazolo(4,3-A)(1,4)benzodiazepines and thieno (3,2-F)(1,2,4)triazolo(4,3-A)(1,4)diazepine compounds which have useful activity as platelet activating factor (PAF) antagonists” (Hoffmann-La Roche Inc., priority 1988, dated 1990).
Read-outs that look alike come from different tables or passages of the source.

Legend:
[1] = tested on: PAF Induced Bronchoconstriction; assay: PAF induced bronchoconstriction assay, oral testing; format: in vivo, guinea pig; details: Cavia porcellus, po, 2 hr; for ED50: p.o., read-out: Bronchoconstriction ID-50 p.o. 2 hr; for inhibition in vivo at 0.3 mg/kg: at a dose of 0.3 mg/kg p.o.; for inhibition in vivo at 3 mg/kg: Table II (*), 3 mg/kg p.o.
[2] = tested on: PAF Induced Bronchoconstriction; assay: PAF induced bronchoconstriction assay, intravenous testing; format: in vivo, guinea pig; details: for ED50: Cavia porcellus, iv, 1 min, i.v., 1 minute pretreatment, PAF 1 μg/kg i.v., read-out: Bronchoconstriction ID-50 i.v.; for % inhibition of bronchoconstriction: Table II (*), at 0. mg/kg i.v. (dose digit cut off)
Experimental: Male animals (Hartlet Strain, 400-500 g were anesthetized with urethane (2 g/kg, i.p.). Each animals' trachea was cannulated and the guinea pigs were respirated using a Harvard small animal rodent respirator (3.0 cc stroke volume, 40 breaths per min.). Tracheal pressure was recorded from a cannula inserted in the trachea and connected to a Statham pressure transducer.
The jugular vein was cannulated for administering compounds. Spontaneous breathing was arrested with succinylcholine (1.2 mg/kg, i.v.) administered 2 minutes prior to intravenous injection of platelet activating factor PAF).
For the intravenous testing, the guinea pig is given a 1-minute pretreatment with propranolol at a dose of 0.1 mg/kg intravenously. The test compound is administered with a 1 minute pretreatment prior to intravenous challenge with PAF. The animal is then challenged with a 1 μg/kg intravenous dose of PAF and the change in tracheal pressure is measured.
The change in tracheal pressure is determined by subtracting the steady state baseline achieved after administration of succinylcholine from the peak broncho. constriction seen after challenge with PAF. The mean is calculated for each test compound and compared to the mean of the control animals to give the percent inhibition of bronchoconstriction. The standard error is calculated as the standard error of the mean.

[3] = biological target: T1, PAF-binding, dog platelets (Canis lupus familiaris, UniProt A0A8I3NSH0); assay: PAF binding assay (radiolabelled H-PAF, washed dog platelets); details: 10 minutes at room temperature, read-out: PAF-binding IC-50
T1 construct: dog platelets; from tissue; host or cells: washed platelets from citrated dog blood
T1 sequence (A0A8I3NSH0 1-343): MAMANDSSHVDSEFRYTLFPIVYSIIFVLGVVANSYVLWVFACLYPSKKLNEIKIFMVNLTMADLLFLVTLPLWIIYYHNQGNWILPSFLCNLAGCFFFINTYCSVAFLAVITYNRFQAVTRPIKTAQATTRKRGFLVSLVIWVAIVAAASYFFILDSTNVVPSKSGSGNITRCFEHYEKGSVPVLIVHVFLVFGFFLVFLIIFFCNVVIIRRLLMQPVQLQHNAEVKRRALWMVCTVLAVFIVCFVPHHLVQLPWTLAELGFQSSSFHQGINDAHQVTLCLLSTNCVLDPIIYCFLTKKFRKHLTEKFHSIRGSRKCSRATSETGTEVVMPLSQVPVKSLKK
Experimental: The binding assay was done in […] polyethylene microcentrifuge tubes (Beckman) containing 50 μl of an oil mixture of 2 parts Siliconol AR200 (Serva): 1 part Silicone Fluid (Arthur H. Thoma). Buffer, standards, or analogs (150 μl total volume) were added to the tubes. Radiolabelled H-PAF (50 μl) was then added to the tubes. The reaction was started by the addition of 50 μl of dog platelets (2×10^7 platelets). The tubes were capped, inverted several times to mix, and incubated for 10 minutes at room temperature. The platelets were separated from the incubation mixture by centrifuging 1 minute in a Beckman Microfuge B centrifuge. The tip of the microfuge tube was cut off, and the platelets were washed out of the tip with 200 μl of 50% methanol (Burdick and Jackson). Aquasol (NEN, 10 ml) was added and the radioactivity in the samples was determined using an LS 8100 Beckman liquid scintillation counter linked to a Techtran tape recorder Data was processed through an in-house computer system. Alternatively, radioactivity was determined using a Searle Mark III liquid scintillation counter linked to a Iso-Data microprocessor.
(b) preparation of platelets
Blood was collected from anesthesized or unanesthesized dogs into 50 ml plastic centrifuge tubes containing 3.8% sodium citrate as the anticoagulant (1 volume of citrate/9 volumes of blood). The red cells were removed by centrifugation for 15 minutes at 600 rpm (100-125 g) at room temperature. An aliquot of the supernatant platelet rich plasma (PRP) was saved for cell counting and the remainder was acidified to pH 6.5 with 0.15M citric acid. The platelet pellet was obtained after a 10 minute centrifugation at 2000 rpm (1000 g) at room temperature. Washed platelets were prepared by resuspending the platelet pellet once with pBS containing 1 mM EDTA, centrifuging as noted, and then resuspending the platelets in 0.1% BSA pBS. An aliquot of the washed platelets was counted. Platelets used for binding assays were diluted to 2×10^7 platelets/assay tube (4×10^8 platelets/ml). platelet countinq was done using a Royco Cell-Crit 921.

[4] = Table I, triazolothienodiazepines
[5] = Table II, triazolobenzodiazepines

SMILES	ED50 ([1]; Table I)	ED50 ([2]; Table I)	IC50 [3, 4]	IC50 [3, 5]	other results
Cc1nnc2n1-c1sc(C#CCn3c(=O)ccc4ccccc43)cc1C(c1ccccc1Cl)=NC2	0.016 mg/kg	0.006 mg/kg	2 nM	–	–
Cc1nnc2n1-c1sc(C#CCN3C(=O)CCc4ccccc43)cc1C(c1ccccc1Cl)=NC2	0.015 mg/kg	0.004 mg/kg	0.2 nM	–	–
Cc1nnc2n1-c1sc(C#CCN3Cc4cccc5cccc(c45)C3=O)cc1C(c1ccccc1Cl)=NC2	0.009 mg/kg	0.01 mg/kg	3.5 nM	–	–
Cc1nnc2n1-c1sc(C#CCn3c(=O)n(C)c4ccccc43)cc1C(c1ccccc1Cl)=NC2	0.043 mg/kg	0.004 mg/kg	0.3 nM	–	–
Cc1nnc2n1-c1sc(C#CCC34CCCc5cccc(c53)NC4=O)cc1C(c1ccccc1Cl)=NC2 (stereo not drawn)	–	0.008 mg/kg	0.7 nM	–	inhibition in vivo at 0.3 mg/kg ([1]; Table I): 24%
Cc1nnc2n1-c1sc(C#CCN3C(=O)C4(C)CCCc5cccc3c54)cc1C(c1ccccc1Cl)=NC2 (stereo not drawn)	0.03 mg/kg	0.013 mg/kg	12 nM	–	–
Cc1nnc2n1-c1sc(C#CCn3c4ccccc4c4ccccc43)cc1C(c1ccccc1Cl)=NC2	0.016 mg/kg	0.016 mg/kg	120 nM	–	–
Cc1nnc2n1-c1sc(C#CCn3c(=O)c4ccccc4c4ccccc4c3=O)cc1C(c1ccccc1Cl)=NC2	0.015 mg/kg	0.01 mg/kg	51 nM	–	–
Cc1nnc2n1-c1sc(C#CCn3c(=O)c4ccccc4c4ccccc43)cc1C(c1ccccc1Cl)=NC2	0.012 mg/kg	0.016 mg/kg	13 nM	–	–
Cc1nnc2n1-c1sc(C#CCn3c(=O)n(C)c(=O)c4ccccc43)cc1C(c1ccccc1Cl)=NC2	0.017 mg/kg	0.007 mg/kg	0.6 nM	–	–
Cc1nnc2n1-c1sc(C#CCN3C(=O)COc4ccc(Cl)cc43)cc1C(c1ccccc1Cl)=NC2	0.049 mg/kg	0.004 mg/kg	< 1 nM	–	–
Cc1nnc2n1-c1sc(C#CCn3c(=O)n(-c4ccccc4)c4ccccc43)cc1C(c1ccccc1Cl)=NC2	0.015 mg/kg	0.008 mg/kg	< 1 nM	–	–
Cc1nnc2n1-c1sc(C#Cc3ccccn3)cc1C(c1ccccc1Cl)=NC2	–	0.056 mg/kg	250 nM	–	inhibition in vivo at 0.3 mg/kg ([1]; Table I): 5%
Cc1nnc2n1-c1sc(C#CCn3ccc4ccccc4c3=O)cc1C(c1ccccc1Cl)=NC2	0.029 mg/kg	0.007 mg/kg	1 nM	–	–
Cc1nnc2n1-c1sc(C#CCN3C(=O)CCc4cc(Cl)cc(Cl)c43)cc1C(c1ccccc1Cl)=NC2	0.021 mg/kg	0.006 mg/kg	< 1 nM	–	–
Cc1nnc2n1-c1sc(C#CCn3c4c(c5ccccc53)CCCC4)cc1C(c1ccccc1Cl)=NC2	0.006 mg/kg	0.005 mg/kg	7 nM	–	–
Cc1nnc2n1-c1ccc(C#CCN3C(=O)c4ccccc4C3=O)cc1C(c1ccccc1Cl)=NC2	–	–	–	20 nM	ED50 ([1]; Table II): 1.4 mg/kg; ED50 ([2]; Table II): 0.019 mg/kg
Cc1nnc2n1-c1ccc(C#CCN3C(=O)c4ccccc4C3=O)cc1C(c1ccccc1F)=NC2	–	–	–	10 nM	ED50 ([1]; Table II): 0.52 mg/kg; ED50 ([2]; Table II): 0.013 mg/kg
COC1c2ccccc2C(=O)N1CC#Cc1ccc2c(c1)C(c1ccccc1F)=NCc1nnc(C)n1-2 (stereo not drawn)	–	–	–	100 nM	inhibition in vivo at 3 mg/kg [1]: 100%; % inhibition of bronchoconstriction [2]: 99%
Cc1nnc2n1-c1ccc(C#CCN3C(=O)c4cccc5cccc3c45)cc1C(c1ccccc1F)=NC2	–	–	–	20 nM	inhibition in vivo at 3 mg/kg [1]: 57%; % inhibition of bronchoconstriction [2]: 99%
Cc1nnc2n1-c1ccc(C#CCCc3ccccc3)cc1C(c1ccccc1F)=NC2	–	–	–	< 1 nM	ED50 ([1]; Table II): > 0.3 mg/kg; ED50 ([2]; Table II): 0.006 mg/kg
Cc1nnc2n1-c1ccc(C#CCN3C(=O)CCc4ccccc43)cc1C(c1ccccc1F)=NC2	–	–	–	20 nM	ED50 ([1]; Table II): 0.44 mg/kg; ED50 ([2]; Table II): 0.015 mg/kg
CCc1nnc2n1-c1ccc(C#CCN3C(=O)c4ccccc4C3=O)cc1C(c1ccccc1F)=NC2 [2-[3-[1-Ethyl-6-(2-fluorophenyl)-4H-[1,2,4]triazolo[4,3-a][1, 4]benzodiazepin-8-yl]-2-propynyl]-1H-isoindole-1,3(2H)dione semihydrate]	–	–	–	100 nM	ED50 ([1]; Table II): 1.5 mg/kg; ED50 ([2]; Table II): 0.054 mg/kg
